Data as given in US11420970B1 (NOVARTIS AG, priority 2019, dated 2022).
Read-outs that look alike come from different tables or passages of the source.

Legend:
[1] = target: NSD2 [1-1365] (Homo sapiens (Human), UniProt O96028); assay: LC-MS/MS-based NSD2 enzymatic assay (SAH production); format: biochemical; settings: read-out: NSD2 IC50
Summary of the method: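 Full-length NSD2 [1-1365] (8 nM final) with 1 μM SAM and 400 nM mouse-liver nucleosome in Tris pH 8.0 buffer; inhibitor preincubated 20 min with enzyme/SAM before nucleosome addition. Reaction 90 min at room temperature, TFA-quenched; SAH quantified by LC-MS/MS against d4-SAH internal standard and SAH standard curve.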

[2] = test system: cellular H3K36me2 level in multiple myeloma cell line KMS11 (t(4;14)+); assay: H3K36me2 cellular ELISA assay in KMS11-Par line; format: cell-based; settings: Homo sapiens, KMS-11, ELISA, read-out: H3K36me2 ELISA in KMS11-Par
Summary of the method: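 KMS11 cells were seeded a day ahead at 1,250 per well in Opti-MEM with B-27/N2, then treated with compound for 72 h. Histones were acid-extracted with 0.4M HCl, and H3K36me2 and total H3 were read by chemiluminescent ELISA. Viability was checked with CellTiter-Glo on a parallel plate in maintenance media.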

[3] = test system: cellular H3K36me2 level in thyroid carcinoma cell line CGTH-W-1 (NSD2 E1099K); assay: H3K36me2 cellular ELISA assay in CGTH-W-1 line; format: cell-based; settings: Homo sapiens, CGTH-W-1, 72 h, read-out: H3K36me2 ELISA in CGTH-W-1
Summary of the method: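 CGTH-W-1 thyroid carcinoma cells (NSD2 E1099K gain-of-function) exposed to compound for 72 hours. Histone-bound plates probed for H3K36me2 and total H3 by chemiluminescent ELISA. Viability checked on a parallel plate with CellTiter-Glo.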

[4] = NSD2 biochemical activity, class symbols
[5] = KMS11-Par line (t(4;14)+), 72 hours treatment

NSD2 [1-1365], sequence (O96028 whole entry): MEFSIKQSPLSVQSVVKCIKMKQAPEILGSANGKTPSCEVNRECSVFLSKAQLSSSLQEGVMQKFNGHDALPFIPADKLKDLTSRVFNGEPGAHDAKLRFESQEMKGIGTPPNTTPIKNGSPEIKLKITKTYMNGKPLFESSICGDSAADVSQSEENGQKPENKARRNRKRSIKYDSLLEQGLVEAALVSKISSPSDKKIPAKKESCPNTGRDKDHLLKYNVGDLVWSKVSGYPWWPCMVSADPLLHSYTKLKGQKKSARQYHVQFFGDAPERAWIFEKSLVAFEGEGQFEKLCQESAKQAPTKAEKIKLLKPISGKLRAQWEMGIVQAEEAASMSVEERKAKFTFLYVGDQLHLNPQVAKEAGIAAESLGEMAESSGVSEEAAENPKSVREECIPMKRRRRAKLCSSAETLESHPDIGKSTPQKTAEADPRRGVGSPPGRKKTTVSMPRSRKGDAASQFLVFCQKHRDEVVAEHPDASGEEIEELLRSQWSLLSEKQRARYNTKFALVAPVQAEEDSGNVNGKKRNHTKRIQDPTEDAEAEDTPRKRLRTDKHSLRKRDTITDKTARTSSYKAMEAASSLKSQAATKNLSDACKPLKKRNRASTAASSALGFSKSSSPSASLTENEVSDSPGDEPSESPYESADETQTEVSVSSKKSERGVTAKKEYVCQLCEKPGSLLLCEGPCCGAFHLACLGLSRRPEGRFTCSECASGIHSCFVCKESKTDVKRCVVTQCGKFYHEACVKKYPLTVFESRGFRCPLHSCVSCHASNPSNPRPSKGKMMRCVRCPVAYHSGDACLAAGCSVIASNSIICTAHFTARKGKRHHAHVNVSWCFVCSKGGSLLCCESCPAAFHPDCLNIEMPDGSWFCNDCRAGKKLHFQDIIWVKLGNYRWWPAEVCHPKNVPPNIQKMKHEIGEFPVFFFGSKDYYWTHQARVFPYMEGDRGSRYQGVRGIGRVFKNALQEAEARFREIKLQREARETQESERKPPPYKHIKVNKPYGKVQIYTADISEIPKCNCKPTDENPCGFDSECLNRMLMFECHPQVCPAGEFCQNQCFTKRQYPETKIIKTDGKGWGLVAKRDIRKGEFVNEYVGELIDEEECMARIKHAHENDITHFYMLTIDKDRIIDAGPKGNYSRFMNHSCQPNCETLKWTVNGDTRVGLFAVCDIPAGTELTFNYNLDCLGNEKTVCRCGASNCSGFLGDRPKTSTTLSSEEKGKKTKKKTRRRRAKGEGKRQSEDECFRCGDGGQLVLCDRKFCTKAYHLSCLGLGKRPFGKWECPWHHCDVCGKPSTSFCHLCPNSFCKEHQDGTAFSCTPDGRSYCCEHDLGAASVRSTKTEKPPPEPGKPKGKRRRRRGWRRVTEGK

Row | Structure (SMILES) | IC50 [1, 4] [nM] | IC50 [2, 5] [nM] | IC50 [3] [nM] | IC50 [1] [nM] | IC50 ([2]; KMS11-Par line, 72 hours) [nM]
1 | Nc1ncnc2c1ncn2Cc1cc(-c2cc(F)c(F)cc2F)ncc1N1CCC[C@](N)([C@H](O)C(F)F)C1 [Example 157, (S)-1-((R)-3-amino-1-(4-((6-amino-9H-purin-9-yl)methyl)-6-(2,4,5-trifluorophenyl)pyridin-3-yl)piperidin-3-yl)-2,2-difluoroethan-1-ol] | 1 to 10 | 1310 | 385 |  | 
2 | COc1ccc(-c2cc(Cn3cnc4c(N)ncnc43)c(N3CCC[C@](N)([C@H](O)C(F)F)C3)cn2)cc1Cl [Example 125, (S)-1-((R)-3-amino-1-(4-((6-amino-9H-purin-9-yl)methyl)-6-(3-chloro-4-methoxyphenyl)pyridin-3-yl)piperidin-3-yl)-2,2-difluoroethan-1-ol] | 1 to 10 | 3950 | 775 |  | 
3 | Nc1ncnc2c1ncn2Cc1cc(-c2ccc(OC(F)F)c(F)c2)ncc1N1CCC[C@](N)([C@@H](O)C(F)F)C1 [Example 119, (R)-1-((R)-3-amino-1-(4-((6-amino-9H-purin-9-yl)methyl)-6-(4-(difluoromethoxy)-3-fluorophenyl)pyridin-3-yl)piperidin-3-yl)-2,2-difluoroethan-1-ol] | 1 to 10 | 1490 | 228 |  | 
4 | Cc1ccc(-c2cc(Cn3cnc4c(N)ncnc43)c(N3CCC[C@](N)([C@@H](O)C(F)F)C3)cn2)c(C)c1 [Example 126, (R)-1-((R)-3-amino-1-(4-((6-amino-9H-purin-9-yl)methyl)-6-(2,4-dimethylphenyl)pyridin-3-yl)piperidin-3-yl)-2,2-difluoroethan-1-ol] | 1 to 10 | 1110 | 469 |  | 
5 | Cc1cccc([C@@]2(N)CCCN(c3cnc(-c4ccc(F)c(F)c4)cc3Cn3cnc4c(N)ncnc43)C2)[n+]1[O-] [Example 232, (R)-2-(3-amino-1-(4-((6-amino-9H-purin-9-yl)methyl)-6-(3,4-difluorophenyl)pyridin-3-yl)piperidin-3-yl)-6-methylpyridine 1-oxide] |  |  | 1470 | 10 to 1000 | 7650
6 | COc1cc(F)c(-c2cc(Cn3cnc4c(N)ncnc43)c(N3CCC[C@](N)(c4cccc(Cl)n4)C3)cn2)c(F)c1 [Example 236, (R)-9-((5-(3-amino-3-(6-chloropyridin-2-yl)piperidin-1-yl)-2-(2,6-difluoro-4-methoxyphenyl)pyridin-4-yl)methyl)-9H-purin-6-amine] |  |  | 1390 | 10 to 1000 | 6300
7 | Nc1ncnc2c1ncn2Cc1cc(-c2ccc(F)c(F)c2)ncc1N1CCCC(N)(c2ccc(O)c(F)n2)C1 (stereo not drawn) [Example 214, 6-(3-amino-1-(4-((6-amino-9H-purin-9-yl)methyl)-6-(3,4-difluorophenyl)pyridin-3-yl)piperidin-3-yl)-2-fluoropyridin-3-ol] |  |  | 444 | 10 to 1000 | 2430
8 | CC1(C(=O)C2(N)CCCN(c3cnc(-c4ccc(F)c(F)c4)cc3Cn3cnc4c(N)ncnc43)C2)CC1 (stereo not drawn) [Example 107, (3-amino-1-(4-((6-amino-9H-purin-9-yl)methyl)-6-(3,4-difluorophenyl)pyridin-3-yl)piperidin-3-yl)(1-methylcyclopropyl)methanone] | 10 to 1000 | 3020 | 446 |  | 
9 | Cc1cc([C@@]2(N)CCCN(c3cnc(-c4ccc(F)c(F)c4)cc3Cn3cnc4c(N)ncnc43)C2)no1 [Example 284, (R)-9-((5-(3-amino-3-(5-methylisoxazol-3-yl)piperidin-1-yl)-2-(3,4-difluorophenyl)pyridin-4-yl)methyl)-9H-purin-6-amine] |  |  | 111 | 1 to 10 | 254
10 | Nc1ncnc2c1ncn2Cc1cc(-c2ccc(F)c(F)c2)ncc1N1CCC[C@](N)(c2nc(Cl)ccc2F)C1 [Example 192, (R)-9-((5-(3-amino-3-(6-chloro-3-fluoropyridin-2-yl)piperidin-1-yl)-2-(3,4-difluorophenyl)pyridin-4-yl)methyl)-9H-purin-6-amine] |  |  | 731 | 10 to 1000 | 2180
11 | Nc1ncnc2c1ncn2Cc1cc(-c2ccc(F)c(F)c2)ncc1N1CCCC(N)(C(=O)NC2CCOC2)C1 (stereo not drawn) [Example 85, 3-amino-1-(4-((6-amino-9H-purin-9-yl)methyl)-6-(3,4-difluorophenyl)pyridin-3-yl)-N-(tetrahydrofuran-3-yl)piperidine-3-carboxamide] | 10 to 1000 | 6490 | 2080 |  | 
12 | Nc1ncnc2c1ncn2Cc1cc(-c2cnc(F)c(Cl)c2)ncc1N1CCC[C@](N)(c2cccc(Cl)n2)C1 [Example 180, (R)-9-((5-(3-amino-3-(6-chloropyridin-2-yl)piperidin-1-yl)-5′-chloro-6′-fluoro-[2,3′-bipyridin]-4-yl)methyl)-9H-purin-6-amine] |  |  | 1460 | 10 to 1000 | 5490
13 | CC(O)c1ccc([C@@]2(N)CCCN(c3cnc(-c4ccc(F)c(F)c4)cc3Cn3cnc4c(N)ncnc43)C2)nc1Cl (stereo partly drawn) [Example 234, 1-(6-((R)-3-amino-1-(4-((6-amino-9H-purin-9-yl)methyl)-6-(3,4-difluorophenyl)pyridin-3-yl)piperidin-3-yl)-2-chloropyridin-3-yl)ethan-1-ol] |  |  | 1620 | 10 to 1000 | 5990
14 | COc1ccc(-c2cc(Cn3cnc4c(N)ncnc43)c(N3CCC[C@](N)(c4cccc(Cl)n4)C3)cn2)nc1Cl [Example 194, (R)-9-((5-(3-amino-3-(6-chloropyridin-2-yl)piperidin-1-yl)-6′-chloro-5′-methoxy-[2,2′-bipyridin]-4-yl)methyl)-9H-purin-6-amine] |  |  | 805 | 10 to 1000 | 3280
15 | CC1CCCCN1C(=O)C1(N)CCCN(c2cnc(-c3ccc(F)c(F)c3)cc2Cn2cnc3c(N)ncnc32)C1 (stereo not drawn) [Example 87, (3-amino-1-(4-((6-amino-9H-purin-9-yl)methyl)-6-(3,4-difluorophenyl)pyridin-3-yl)piperidin-3-yl)(2-methylpiperidin-1-yl)methanone] | 10 to 1000 | 6420 | 1600 |  | 
16 | Nc1ncnc2c1ncn2Cc1cc(-c2cc(F)c(F)cc2F)ncc1N1CCC[C@](N)([C@@H](O)C(F)F)C1 [Example 156, (R)-1-((R)-3-amino-1-(4-((6-amino-9H-purin-9-yl)methyl)-6-(2,4,5-trifluorophenyl)pyridin-3-yl)piperidin-3-yl)-2,2-difluoroethan-1-ol] | 1 to 10 | 574 | 41 |  | 
17 | Nc1ncnc2c1ncn2Cc1cc(-c2cc(F)c(O)cc2F)ncc1N1CCC[C@](N)([C@H](O)C(F)F)C1 [Example 144, 4-(5-((R)-3-amino-3-((S)-2,2-difluoro-1-hydroxyethyl)piperidin-1-yl)-4-((6-amino-9H-purin-9-yl)methyl)pyridin-2-yl)-2,5-difluorophenol] | 10 to 1000 | 10400 | 2580 |  | 
18 | COc1ccc(-c2cc(Cn3cnc4c(N)ncnc43)c(N3CCC[C@](N)(c4cccc(Cl)n4)C3)cn2)cc1F [Example 213, (R)-9-((5-(3-amino-3-(6-chloropyridin-2-yl)piperidin-1-yl)-2-(3-fluoro-4-methoxyphenyl)pyridin-4-yl)methyl)-9H-purin-6-amine] |  |  | 258 | 1 to 10 | 387
19 | COc1ccc(-c2cc(Cn3cnc4c(N)ncnc43)c(N3CCC[C@](N)([C@@H](C)O)C3)cn2)cc1F [Example 90, (R)-1-((R)-3-amino-1-(4-((6-amino-9H-purin-9-yl)methyl)-6-(3-fluoro-4-methoxyphenyl)pyridin-3-yl)piperidin-3-yl)ethan-1-ol] | 1 to 10 | 432 | 239 |  | 
20 | C#C[C@@]1(N)CCCN(c2cnc(-c3ccc(F)c(F)c3)cc2Cn2cnc3c(N)ncnc32)C1 [Example 304, (S)-9-((5-(3-amino-3-ethynylpiperidin-1-yl)-2-(3,4-difluorophenyl)pyridin-4-yl)methyl)-9H-purin-6-amine] |  |  | 101 | 10 to 1000 | 592
21 | Nc1ncnc2c1ncn2Cc1cc(-c2cc(F)c(OC(F)F)cc2F)ncc1N1CCC[C@](N)([C@@H](O)C(F)F)C1 [Example 150, (R)-1-((R)-3-amino-1-(4-((6-amino-9H-purin-9-yl)methyl)-6-(4-(difluoromethoxy)-2,5-difluorophenyl)pyridin-3-yl)piperidin-3-yl)-2,2-difluoroethan-1-ol] | 10 to 1000 | 1670 | 307 |  | 
22 | COc1ccc(Cl)nc1[C@@]1(N)CCCN(c2cnc(-c3ccc(F)c(F)c3)cc2Cn2cnc3c(N)ncnc32)C1 [Example 230, (R)-9-((5-(3-amino-3-(6-chloro-3-methoxypyridin-2-yl)piperidin-1-yl)-2-(3,4-difluorophenyl)pyridin-4-yl)methyl)-9H-purin-6-amine] |  |  | 1650 | 10 to 1000 | 9980
